Assay results published in PubChem BioAssay (NCI).
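Tested at 5 concentrations; 48 h exposure; 96-well plates; endpoints linearly interpolated, else capped at highest concentration. GI50 = concentration required for 50% inhibition of growth. TGI: total growth inhibition.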

Key:
Test in all cases: NCI-60 cell line screen, 48 h
TK-10 renal = test system: TK-10 renal
SK-OV-3 ovarian = test system: SK-OV-3 ovarian
LOX IMVI melanoma = test system: LOX IMVI melanoma
SK-MEL-2 melanoma = test system: SK-MEL-2 melanoma
UACC-257 melanoma = test system: UACC-257 melanoma
NCI-H460 lung = test system: NCI-H460 lung
HCT-15 colon = test system: HCT-15 colon
NCI-H23 lung = test system: NCI-H23 lung
UACC-62 melanoma = test system: UACC-62 melanoma
EKVX NSCLC = test system: EKVX NSCLC
T-47D breast = test system: T-47D breast
SNB-75 CNS = test system: SNB-75 CNS
NCI-H226 lung = test system: NCI-H226 lung
MDA-MB-468 breast = test system: MDA-MB-468 breast
HOP-92 NSCLC = test system: HOP-92 NSCLC
BT-549 breast = test system: BT-549 breast
OVCAR-4 ovarian = test system: OVCAR-4 ovarian
SNB-19 CNS = test system: SNB-19 CNS
K-562 leukemia = test system: K-562 leukemia
HCT-116 colon = test system: HCT-116 colon
MOLT-4 leukemia = test system: MOLT-4 leukemia
COLO 205 colon = test system: COLO 205 colon
SK-MEL-28 melanoma = test system: SK-MEL-28 melanoma
NCI-H522 lung = test system: NCI-H522 lung
IGROV1 ovarian = test system: IGROV1 ovarian
M14 melanoma = test system: M14 melanoma
MDA-MB-231 breast = test system: MDA-MB-231 breast
HCC-2998 colon = test system: HCC-2998 colon
MALME-3M melanoma = test system: MALME-3M melanoma

C=CC[Se]C(=O)c1cncc(C(=O)[Se]CC=C)c1 was tested, and the GI50 (TK-10 renal) was 1710 nM, the TGI (TK-10 renal) was 3140 nM and the GI50 (SK-OV-3 ovarian) was 1430 nM. For the same molecule, the TGI (SK-OV-3 ovarian) was 3030 nM, the GI50 (LOX IMVI melanoma) was 1740 nM and the TGI (LOX IMVI melanoma) was 3350 nM. The GI50 (SK-MEL-2 melanoma) was 1920 nM, the TGI (SK-MEL-2 melanoma) was 3790 nM and the GI50 (UACC-257 melanoma) was 1790 nM. The TGI (UACC-257 melanoma) was 3350 nM, the GI50 (NCI-H460 lung) was 382 nM and the TGI (NCI-H460 lung) was 3070 nM. For the same molecule, the GI50 (HCT-15 colon) was 1950 nM, the TGI (HCT-15 colon) was 3810 nM and the GI50 (NCI-H23 lung) was 1390 nM. It also gave a TGI (NCI-H23 lung) of 2960 nM, a GI50 (UACC-62 melanoma) of 1680 nM and a TGI (UACC-62 melanoma) of 3720 nM. It also gave a GI50 (EKVX NSCLC) of 1460 nM, a TGI (EKVX NSCLC) of 3080 nM and a GI50 (T-47D breast) of 2140 nM. For the same molecule, the TGI (T-47D breast) was 5140 nM, the GI50 (SNB-75 CNS) was 1030 nM and the TGI (SNB-75 CNS) was 2440 nM. The GI50 (NCI-H226 lung) was 2880 nM, the TGI (NCI-H226 lung) was 10500 nM and the GI50 (MDA-MB-468 breast) was 1800 nM. It also gave a TGI (MDA-MB-468 breast) of 3540 nM, a GI50 (HOP-92 NSCLC) of 3300 nM and a TGI (HOP-92 NSCLC) of 8930 nM. For the same molecule, the GI50 (BT-549 breast) was 1740 nM, the TGI (BT-549 breast) was 3210 nM and the GI50 (OVCAR-4 ovarian) was 1990 nM. The TGI (OVCAR-4 ovarian) was 3850 nM, the GI50 (SNB-19 CNS) was 386 nM and the TGI (SNB-19 CNS) was 1500 nM. It also gave a GI50 (K-562 leukemia) of 3150 nM, a TGI (K-562 leukemia) of 10700 nM and a GI50 (HCT-116 colon) of 1310 nM. The TGI (HCT-116 colon) was 2820 nM, the GI50 (MOLT-4 leukemia) was 2730 nM and the TGI (MOLT-4 leukemia) was 7740 nM. It also gave a GI50 (COLO 205 colon) of 3650 nM, a TGI (COLO 205 colon) of 10600 nM and a GI50 (SK-MEL-28 melanoma) of 1710 nM. For the same molecule, the TGI (SK-MEL-28 melanoma) was 3240 nM, the GI50 (NCI-H522 lung) was 1680 nM and the TGI (NCI-H522 lung) was 3100 nM. For the same molecule, the GI50 (IGROV1 ovarian) was 544 nM, the TGI (IGROV1 ovarian) was 1800 nM and the GI50 (M14 melanoma) was 1810 nM. The TGI (M14 melanoma) was 3310 nM, the GI50 (MDA-MB-231 breast) was 1800 nM and the TGI (MDA-MB-231 breast) was 4000 nM. It also gave a GI50 (HCC-2998 colon) of 1060 nM, a TGI (HCC-2998 colon) of 2260 nM and a GI50 (MALME-3M melanoma) of 1920 nM. It also gave a TGI (MALME-3M melanoma) of 4860 nM.
